Data on one molecule can be found in US9677079B2, “Yeast cells expressing amyloid beta and uses therefor” (Whitehead Insititute for Biomedical Research, priority 2010, dated 2017).

Series [1] relates to strain expressing toxic levels of Aβ (ssAβ 1-42 strain). Kind of series: Clioquinol rescue: growth in liquid culture of ssAβ 1-42 strain and YFP control strain (Bioscreen, OD600). Format: cell-based, Saccharomyces cerevisiae. To be noted: FIG. 4. The protocol:
To further test the effect of clioquinol, a control strain and a strain expressing toxic levels of Aβ were grown in liquid culture with various concentrations of the compound.
To generate ssAβ1-42 screening strains the ssAβ1-42 construct was moved to a pAG Gal p305 expression vector (S. Alberti, A. D. Gitler, S. Lindquist, A suite of Gateway cloning vectors for highthroughput genetic analysis in Saccharomyces cerevisiae. Yeast 24, 913 (2007)). The plasmid was digested using BstX1, gel purified and transformed into W303. The transformation was carried out in duplicate and the level of growth of 16 transformants each was tested on synthetic deficient media lacking leucine with galactose. Two strains from the independent transformations where chosen as screening strains based on their robust yet intermediate toxicity that would allow for the identification of both suppressors and enhancers. […] The control strain for wild type yeast growth is carrying a Gal inducible YFP integrated in the same fashion as the ssAβ1-42 constructs. For spotting assays strains were grown over night at 30° C. in 3 ml SD media lacking the relevant amino acids and containing glucose. Cell concentrations (OD600) were adjusted in a 96-well plate to that of the strain with the lowest concentration. Cells were then 5 fold serially diluted and spotted on SD media containing glucose (Uninduced) and galactose (Induced). Plates were incubated at 30° C. for 2 (glucose) or 3 days (galactose).
Yeast strains were grown overnight to saturation in synthetic medium with glucose as the carbon source after inoculation from a colony. These cultures were used to inoculate raffinose cultures. Raffinose cultures in log phase growth (OD600 0.7-0.9) were diluted to an OD600 of 0.03 in synthetic medium with galactose as the carbon source, and […] of the cell suspension was distributed to each well of a Bioscreen plate. […] of clioquinol (Sigma C8133, ˜95%), dissolved in DMSO at 100 times the final intended concentration, was added to each well. […]

Series [2] relates to GAL1-induced expression (GAL controlled YFP). The series can be described thus: GAL1-induced expression measured by flow cytometry of GAL controlled YFP. The series is classed as cell-based, Saccharomyces cerevisiae. To be noted: flow cytometry of GAL controlled YFP (data not shown). In general terms: Flow cytometry measures light scatter and fluorescence of single cells or particles in a stream.

“Also recorded” adds a separate entry of the source.

For `Oc1c(I)cc(Cl)c2cccnc12` [clioquinol], in series [1] (higher concentrations, ssAβ 1-42 strain and YFP control strain), the “toxicity at higher concentrations” value is listed as “toxic to both strains”. Also, in series [1] (optimal concentration, control strain expressing YFP), the “growth at the optimal concentration compared with control strain” value is given as “nearly as robust as that of the control strain; also recorded: restored growth levels to those of a control strain expressing YFP”. Further, the “growth of the Aβ expressing strain (dose dependence of rescue)” value in series [1] (ssAβ 1-42 strain in inducing (galactose) media, various concentrations) is recorded as “improved the growth of the Aβ expressing strain in a dose dependent manner; also recorded: rescued growth levels in a dose dependent manner”. The “effect on GAL1-induced expression” value in series [2] is “did not diminish GAL1-induced expression”.
